Experimental data taken from patent publication US11352382B2, “Mito-lonidamine, compositions and methods of use” (THE MEDICAL COLLEGE OF WISCONSIN, INC., priority 2018, dated 2022).
Entries after “also recorded” stand apart in the source; their conditions may differ.

Columns and labels:
Type in all cases: cell-based, human
[1] = system: H2030, PC9, H460, H2030BrM3, PC9BrM3 cells; assay: Cell viability of lung cancer and brain metastatic lines (Calcein-AM)
Description: Mito-LON treatment causes cell death of human lung cancer and lung cancer-derived brain metastatic cell lines. Paradoxical roles for autophagy in cancer have been reported for the role of autophagy in cancer. Under conditions of nutrient deprivation autophagy induction can promote cell survival; however, in response to other environmental stressors including ROS generation, autophagy can promote cancer cell death. We treated lung cancer lines (H2030, PC9, H460) and lung cancer-derived brain metastatic lines (H2030BrM3, PC9BrM3) with Mito-LON (1.6, 2.0 or 2.4 μM) and measured cell viability at 24 and 48 h.

intact lung cancer cells = assay: Cellular respiration (oxygen consumption rate, OCR) in intact lung cancer cells; conditions: not shown
Description: (§1) LON and Mito-LON inhibit mitochondrial complex I activity. Mito-LON inhibited cellular respiration (oxygen consumption rate, OCR) at >100-fold lower concentration than LON in intact lung cancer cells (FIG. 9). Both basal respiration and the response to mitochondrial stressors (oligomycin, dinitrophenol) were diminished by Mito-LON (not shown). To investigate the mechanism of mitochondrial inhibition, we measured the activity of mitochondrial complexes in H2030BrM3 cells (NSCLC cell line). The cell membrane was permeabilized, and OCR was measured upon addition of substrates and inhibitors of mitochondrial complexes I-IV (FIG. 9A). These studies established the optimal use of permeabilized cells for complex activity assays.^54 Next, cells were pretreated with LON and Mito-LON for 24 h and experiments performed as in FIG. 9A. […] We hypothesize that inhibition of mitochondrial complexes I and II is the predominant mechanism for antiproliferative effects of Mito-LON on lung cancer cells.

mitochondrial Complex I = assay: Activity of mitochondrial complexes in permeabilized tumor cells (OCR), pancreatic cancer cells
Protocol: To investigate the mechanism of mitochondrial inhibition, we measured the activity of mitochondrial complexes in tumor cells. The cell membrane was permeabilized, and OCR was measured upon addition of substrates and inhibitors of mitochondrial complexes I-II.

mitochondrial Prx3 = assay: Redox status of mitochondrial peroxiredoxin; conditions: lung cancer cells
Description: (§2) Inhibition of mitochondrial respiration results in increased O2^⋅− and other oxidants.

H2030BrM3 cells = assay: Cellular ROS production, HPLC-based analysis of hydroethidine (HE) oxidation; conditions: for ROS generation in lung cancer cells: concentration not given
Description: as §2

[2] = system: mitochondrial complexes I and II; assay: Inhibition of mitochondrial complexes I and II, stated jointly; conditions: for fold potency compared with LON/LDN, complexes I and II: H2030BrM3 lung cancer cells
Description: as §1

[3] = system: phosphorylated ERK and AKT in H2030BrM3 cells; assay: Receptor tyrosine kinase assay and Western blots of ERK and AKT phosphorylation
Description: Role of HK2 and additional possible signaling events that contribute to the effects of Mito-LON. […] This could contribute to their effects as many cancers have constitutive ERK activation which promotes survival and proliferation, and ERK1 can play an important role in regulating mitochondrial activity, apoptosis, proliferation and migration. […] AKT is another pro-survival factor that is constitutively activated (phosphorylated) in many cancers.

[4] = system: H2030 and H2030BrM3 cells; assay: Autophagy and mitophagy markers in cell lysates, MDC staining
Protocol: Mito-LON induces autophagic cell death in human lung cancer cell lines and lung-derived brain metastatic lines. To investigate potential mechanisms underlying Mito-LON's induction of cancer cell death that result from its inhibition of mitochondrial respiration and induction of ROS, we analyzed lysates of cells treated with Mito-LON [2.0 μM] for 0, 6, 24 and 48 h. Lysates were probed for proteins targeting energetics, apoptosis and autophagy, including selective mitophagy markers. Our data (FIG. 19) show Mito-LON treatment [2.0 μM] modulates key autophagy proteins, including specific mitophagy receptors, adaptor proteins and energy sensing molecules in H2030 lung cancer cells and the corresponding brain metastatic line (H2030BrM3). LC3, microtubule-associated protein light chain 3, is critical for cargo recruitment. The LC3 precursor is modified via an ubiquitination-like system generating soluble LC3-I, which is further modified to LC3-II, a membrane-bound phospholipid conjugate upon autophagy induction. LC3-II integrates into the autophagosome membrane and is considered a reliable early marker of autophagy induction. Mito-LON treatment (FIG. 19A) increased levels of LC3-II 1.9 to 4.4-fold across cell lines, with sustained modulation through 48 h. The LC3-interacting region (LIR) serves as a mechanistic basis for selective autophagy, including mitophagy which specifically targets degradation of damaged mitochondria via engagement of adaptor proteins (p62, NBR1, OPTN, BNIP3L). We evaluated the effects of Mito-LON on ubiquitin-binding mitophagy receptors (p62, NDP52, NBR1) which also indicate autophagic flux versus potential impairment of autophagosome turnover. […] Changes were consistently bimodal in Mito-LON treated H2030 cells, potentially due to P62's dual role in mitophagy, both in clustering of mitochondria as well as downstream degradation. […] PINK1 was included as an indicator of PINK1-Parkin dependent mitophagy. Basal levels of PINK1 are normally low with increases due to mitochondrial depolarization, damage and ATP alterations, as noted in both cell lines. Beclin1 (BECN1), an autophagy regulator and potential tumor suppressor gene product in multiple cancers, including NSCLC.
Thus, autophagy induction in the lung derived brain metastatic line may be BECN1-independent. […] NRF2, a major regulator of cellular stress responses, was not detectable in either cell line. FIG. 19B further supports autophagy induction by Mito-LON. […] Specifically, Mito-LON alters phosphorylation events and activating partners in parallel. As an example, P-P70S6K^Thr389 phosphorylates mTOR^Ser2448; both reduced in Mito-LON treated cells. Similarly, ULK is activated by AMPK, and both phosphoproteins are decreased by Mito-LON, as is P-PTEN.

O=C(NCCCCCCCCCC[P+](c1ccccc1)(c1ccccc1)c1ccccc1)c1nn(Cc2ccc(Cl)cc2Cl)c2ccccc12 [Mito-LON, Mito10-lonidamine]
cytotoxicity at 2 µM ([1]; Homo sapiens, NCI-H2030, H2030 cells, 2.0 μM, 48 h, Calcein-AM, read-out: reduction of cell viability): ~50%
LD50, cell viability ([1]; lung cancer and brain metastatic lines, 24 and 48 h): 2.0 µM
basal respiration and response to mitochondrial stressors (oligomycin, dinitrophenol) (intact lung cancer cells): diminished
Complex I versus Complex II inhibition (mitochondrial Complex I; FIG. 7): inhibits Complex I more potently than Complex II
fold more potent than lonidamine in inhibiting Complex I activity of tumor cells (mitochondrial Complex I; FIGS. 7 and 8): > 500 fold
oxidation of mitochondrial Prx3 (mitochondrial Prx3): oxidizes mitochondrial Prx3; also recorded: pronounced oxidation
oxidation of mitochondrial Prx3 (mitochondrial Prx3; listed as Mito-LDN): oxidizes mitochondrial Prx3
intracellular levels of 2-OH-E+ (superoxide-specific product of HE oxidation) (H2030BrM3 cells; 0.2 μM, H2030BrM3 cells): increase
formation of diethidium (E+-E+) (H2030BrM3 cells; H2030BrM3 cells): strongly induced
ROS generation in lung cancer cells (H2030BrM3 cells): stimulates ROS generation; also recorded: induced ROS generation in mitochondria; also recorded: enhanced the formation of 2-hydroxyethidium; also recorded: increased ROS generation
ROS generation in lung cancer cells (H2030BrM3 cells; listed as Mito-LDN): stimulates ROS generation
concentration that targets mitochondrial complexes I and II ([2]; FIG. 9): 1.2 to 2.7 µM
fold potency compared with LON/LDN, complexes I and II ([2]; FIG. 9): over 100 fold
fold potency compared with LON/LDN, complexes I and II ([2]; FIG. 9, listed as Mito-LDN): greater than 100 fold
IC50 ([2]; read-out: IC50, inhibition of complex I and II, pretreatment of H2030BrM3 cells): ~2 µM
phosphorylated AKT levels [3]: decreased phosphorylated AKT levels
phosphorylated ERK levels ([3]; confirmed by Western blots): decreased phosphorylated ERK levels
NDP52 ([4]; 2.0 μM): paralleled P62 changes
Beclin-1 levels ([4]; 2.0 μM, H2030 and H2030-BrM3 cells): increased Beclin-1 levels in H2030 cells but not in H2030-BrM3 cells
autophagic vacuolization (bright field) ([4]; 2.0 μM, H2030 cells): markedly increased vacuolization
monodansylcadaverine (MDC) staining ([4]; 2.0 μM, H2030 cells): stained positive for MDC
P62 ([4]; 2.0 μM, both cell lines): modulated P62 in both cell lines
autophagy-initiating energy-sensing proteins of the AKT/mTOR signaling pathway ([4]; FIG. 19C): deactivates
RAB7 levels ([4]; H2030BrM3 cells): increased levels of RAB7
